# Residues, ends and D or L forms follow the SMILES beside them.
# Experiments:
# [1] = system: P. digitatum; experiment: Preliminary trials on oranges, wound infections; format: in vivo; conditions: 50 mg/L (50 ppm)
# Experimental: Promising results in preliminarily trials on oranges have also been observed, with 50% and 80% less wound infections by P. digitatum using 50 mg/L (50 ppm) Trc mix and GS, respectively.
# [2] = system: Botrytis cinerea; experiment: Agar (gel) assay; format: cell-based; design: MIC + SEM: unit not given beside the values
# Experimental: (§1) Microdilution broth and agar assays were used to assess the antifungal activity of the cyclic decapeptides in liquid media and on solid (gel) media, respectively.
# (§2) The antibacterial activity of the tyrocidines and gramicidin S against all the bacteria tested was determined by the methods described by Du Toit E A and Rautenbach M (2000) J. Microbiol. Methods, 42, 159-165. The antifungal activity of the tyrocidines against all the […] tested was determined by the methods described by Troskie A M, Vlok N M and Rautenbach M (2012) J. Microbiol. Methods, 91, 551-558.
# [3] = system: Penicillium digitatum (citrus isolate); experiment: Agar assay; format: cell-based
# Experimental: as §1, §2
# [4] = system: Phaeoacremonium aleophilum; experiment: Agar assay; format: cell-based
# Experimental: as §1, §2
# [5] = system: fungal pathogens; experiment: Plant culture assay, fungal pathogens in growth media; format: in vivo; conditions: without a major detrimental effect to the plant material
# Experimental: (§3) The Trc mix and GS were also tested for use in the sterilization of field-gathered grapevine material for use in plant cultures.
# (§4) Grapevine tissue culture plants were transferred to MS medium containing GS or Trc mix at a concentration of 15 μg/mL and incubated at 25° C. with a 16 h/8 h day night cycle. The growth and development of the grapevine plantlets were monitored and compared to the control set of plants which were maintained on MS-medium without GS or Trc mix.
# [6] = system: Grapevine tissue culture plants; experiment: Plant culture assay, growth and development of plantlets; format: in vivo; conditions: 15 mg/L in MS medium
# Experimental: as §3, §4
# [7] = system: Listeria monocytogenes B73; experiment: Microdilution broth assay; format: cell-based; design: unit not given beside the values
# Experimental: as §1, §2
# [8] = system: Escherichia coli HB101; experiment: Microdilution broth assay; format: cell-based; design: unit not given beside the values
# Experimental: as §1, §2
# [9] = system: Bacillus subtilis ATCC21332; experiment: Microdilution broth assay; format: cell-based; design: unit not given beside the values
# Experimental: as §1, §2
# [10] = system: Cylindrocarpon liriodendri; experiment: Microdilution broth assay; format: cell-based; design: unit not given beside the values
# Experimental: as §1, §2
# [11] = system: Bacillus subtilis OKB105; experiment: Microdilution broth assay; format: cell-based; design: unit not given beside the values
# Experimental: as §1, §2
# [12] = system: Bacillus subtilis OKB120; experiment: Microdilution broth assay; format: cell-based; design: unit not given beside the values
# Experimental: as §1, §2
# [13] = system: Micrococcus luteus NCTG 8340; experiment: Microdilution broth assay; format: cell-based; design: unit not given beside the values
# Experimental: as §1, §2
# [14] = system: Talaromyces ramulosus (peach isolate); experiment: Microdilution broth assay; format: cell-based; design: unit not given beside the values
# Experimental: as §1, §2
# [15] = system: Talaromyces mineoluteus (peach isolate); experiment: Microdilution broth assay; format: cell-based; design: unit not given beside the values
# Experimental: as §1, §2
# [16] = system: Trichoderma atroviride (wood isolate); experiment: Microdilution broth assay; format: cell-based; design: unit not given beside the values
# Experimental: as §1, §2
# [17] = system: Bacillus subtilis 168; experiment: Microdilution broth assay; format: cell-based; design: unit not given beside the values
# Experimental: as §1, §2
# [18] = system: Listeria monocytogenes B73-MR1; experiment: Microdilution broth assay; format: cell-based; design: unit not given beside the values
# Experimental: as §1, §2
# [19] = system: Bacillus spizizenii ATCC 6633; experiment: Microdilution broth assay; format: cell-based; design: unit not given beside the values
# Experimental: as §1, §2
structure (smiles),measurement,setting,value
"CC(C)C[C@@H]1NC(=O)[C@H](CCCN)NC(=O)[C@H](C(C)C)NC(=O)C2CCCN2C(=O)[C@@H](Cc2ccccc2)NC(=O)[C@H](CC(C)C)NC(=O)[C@H](CCCN)NC(=O)[C@H](C(C)C)NC(=O)C2CCCN2C(=O)[C@@H](Cc2ccccc2)NC1=O (stereo partly drawn) [GS, Cyclo-(VOLfPVOLfP)] (HELM PEPTIDE1{L.[dF].[O=C(C1CCCN1[*:1])[*:2]].V.[Orn].L.[dF].[O=C(C1CCCN1[*:1])[*:2]].V.[Orn]}$PEPTIDE1,PEPTIDE1,1:R1-10:R2$$$V2.0)",less wound infections by P. digitatum,[1],80%
same,MIC + SEM,"[2]; Agar, Botrytis cinerea",2.5 ± 0.3
same,IC50 ± SEM,[2]; B. cinerea on PDA,2.0 ± 0.3 µg/mL
same,MIC ± SEM,[2]; B. cinerea on PDA,2.8 ± 0.3 µg/mL
same,IC50 ± SEM,[2]; B. cinerea on YTSA,4.5 ± 1.1 µg/mL
same,MIC ± SEM,[2]; B. cinerea on YTSA,8.2 ± 1.8 µg/mL
same,MIC + SEM,[3],<20
same,MIC + SEM,[4],<10
same,concentration sufficient to eliminate fungal pathogens in the growth media,[5],15 mg/L
same,effect on root growth,[6],root growth was visibly affected
same,effect on plant culture survival and growth,[6]; vs control plants,enhanced plant culture survival and foliage growth
same,MIC + SEM,[7],9.9 ± 0.2
same,MIC + SEM,[8],44
same,MIC + SEM,[9],8-14
same,MIC + SEM,[10],2.3 ± 0.1
same,MIC + SEM,[11],8-14
same,MIC + SEM,[12],8-14
same,MIC + SEM,[13],28 ± 0.4
same,MIC + SEM,[14],3.0 ± 0.1
same,MIC + SEM,[15],4.2 ± 0.2
same,MIC + SEM,[16],4.8 ± 0.3
same,MIC + SEM,[17],8-14
same,MIC + SEM,[18],5.6 ± 0.1
same,MIC + SEM,[19],2.6 ± 0.2
